Data: ChEMBL document CHEMBL5550152, “Design, synthesis and evaluation of novel prostate-specific membrane antigen-targeted aryl [18F]fluorosulfate PET tracers” (Bioorg Med Chem, 2024)

Legend:
[1] = Stability of the compound in PBS buffer measured after 4 hrs by radio-HPLC analysis; format: physicochemical
[2] = Drug uptake in human 22Rv1 cells at 3.7 10^-2MBq measured after 4 hrs relative to control; format: ADME, cell-based; settings: cwr22r
[3] = Stability in mouse plasma measured after 4 hrs by radio-HPLC analysis; format: ADME, cell-free
[4] = Drug uptake in human 22Rv1 cells at 3.7 10^-2MBq measured after 1 hr; format: ADME, cell-based; settings: cwr22r
[5] = Drug uptake in mouse tumor xenografted with human 22Rv1 cells at 7.4 MBq, iv measured after 2 hrs by PET imaging analysis relative to control; format: ADME, organism-based, Neoplasm, CWR22R; settings: in vivo
[6] = Drug uptake in human 22Rv1 cells at 3.7 10^-2MBq pretreated with 2-PMPA for 30 mins followed by compound addition and measured after 1 hr; format: ADME, cell-based; settings: cwr22r
[7] = Drug uptake in human 22Rv1 cells at 3.7 10^-2MBq pretreated with 2-PMPA for 30 mins followed by compound addition and measured after 4 hr relative to control; format: ADME, cell-based; settings: cwr22r

O=C(O)CC[C@H](NC(=O)N[C@@H](CCCCNC(=O)[C@H](Cc1ccc2ccccc2c1)NC(=O)c1ccc(CNC(=O)[C@H](CCC(=O)O)NC(=O)[C@H](CCC(=O)O)NC(=O)c2ccc(OS(=O)(=O)[18F])cc2)cc1)C(=O)O)C(=O)O
Stability [1]: Stable | Drug uptake [2]: 0.65% | Stability [3]: Stable | Drug uptake [4]: Not Active | Drug uptake [5]: 2.68 % ID/g | Drug uptake [6]: Not Active | Drug uptake [7]: 0.14%
